Measured values from patent publication US5223484A, “Peptide which regulates weight gain in mammals” (Georgetown University, priority 1990, dated 1993).

Tests used:
[1] = Weight gain of mice injected with free peptide; assay type: in vivo, mice (BALB/c strain); settings: BALB/c mice, free peptide 2.5 μg subcutaneously once per week, 85 days, five mice per group
Description: In order to obtain statistically significant data on the effects of peptide P2 on weight gain, another series of experiments using mice were performed. Three groups of five mice (BALB/c strain) were used. The first group received injections of peptide P2, a second group received injections of P3 (as control), and a third group received injections of saline (as control). Free peptides were used to avoid the possibility that the effect observed in Example 1 may have been due to the nature of the chemical coupling to the carrier protein. Each mouse (weighing approximately 15 grams) received an injection of 2.5 μg (1.5 nanomoles) of peptide or saline injected subcutaneously. The mice were weighed three times per week and injected once per week with another 2.5 μg of peptide or saline. After 85 days the mice were sacrificed.

[2] = Body weight of rabbits injected with peptide/carrier conjugate; assay type: in vivo; settings: female rabbits, peptide coupled to keyhole limpet hemocyanin, 50 μg of peptide subcutaneously, repeated at two weeks then approximately monthly; P1 and P3 pooled (five rabbits)
Description: These peptides were then coupled chemically to keyhole limpet hemocyanin, a carrier protein, to improve the immunogenicity in rabbits.
Each peptide/carrier conjugate (50 μg of peptide, approximately 30 nanomoles) was injected subcutaneously into three female rabbits (three groups of three rabbits, approximately 2 months old). Two weeks later the rabbits were injected again with the same amounts of peptide/carrier conjugate. Thereafter, each rabbit was injected with the conjugate at approximately monthly intervals and blood samples were drawn. After five months, the rabbits were sacrificed.
Before the first injection, the rabbits were weighed for calculation of anesthetic dose (used to sedate the rabbits during injection). Before the rabbits were sacrificed, they were weighed again as the rabbits which received P2 were quite obese compared to all other rabbits. The average weight of the five injected with peptides P1 and P3 was 4.4 kg. This is normal for adult female rabbits of this type at this age, i.e. the average weight expected at 6 months is 4.5 kg. However, the weights of the rabbits injected with peptide P2 averaged 5.2 kg, approximately 20% higher.

Substance	effect on weight gain [1]	average weight of the rabbits at the end of five months [2]
P3: amino-terminal cytochrome b 561 sequence Ser(21) - Tyr(37), cysteine added at amino-terminus, two lysine residues at carboxy-terminus (CSMEGPASPARAPGALPYKK)	not different than the P3 control group	4.4 kg
KRPLQAEEQALSMDF [P1]	–	4.4 kg
